Columns and labels:
[1] = in biological milieu; estimated; cited from earlier work
[2] = test system: precontracted bovine coronary artery rings; experiment: Vasorelaxation of U46619-precontracted bovine coronary artery rings; type: cell-based; conditions: for fold more potent than 14,15-EET as vasorelaxant (ED50): ratio of ED50 versus 14,15-EET

Compound	fold more potent than 14,15-EET as vasorelaxant (ED50) [2] [fold]	other results
CCCCCC1OC1C/C=C\C/C=C\C/C=C\CCCC(=O)O (stereo not shown) [14,15-EET, 14,15-epoxyeicosa-5(Z),8(Z),11(Z)-trienoic acid]		half-life [1]: no more than seconds to minutes
CCCCCNC(=O)NCCCC/C=C\CCCCCNS(=O)(=O)c1ccccc1 [Compd 9]		improvement in the EC50 by a factor (versus parent free acid) ([2]; vasorelaxation EC50 compared with parent free acid): ~2
CCCCCNC(=O)NCCCC/C=C\CCCCCCc1nnn[nH]1 [Compd 19, 1-(12-(1H-Tetrazol-5-yl)dodec-5(Z)-en-1-yl)-3-pentylurea]	12	
N1-Butyl-N2-(12-(2-oxido-3H-1,2,3,5-oxathiadiazol-4-yl)dodec-5(Z)-en-1-yl)oxalamide [Compd 25]	6	
